Measurements as given in publication PMC8073907, “Peptide targeting of lysophosphatidylinositol-sensing GPR55 for osteoclastogenesis tuning” (Cell Communication and Signaling : CCS, 2021).

What was measured:
[1] = test system: Gpr55 mRNA in RAW264.7 cells; experiment: Modulation of Gpr55 mRNA levels by receptor ligands in RANKL-treated RAW264.7 cells; type: cell-based, murine; conditions: 72 h; for Gpr55 mRNA levels (fold non-differentiated): alone or + 1 μM soybean LPI, 0.5 μM ML-191, 0.5 μM CBD or 30 μM O1918, means ± SEM of at least three independent experiments
Procedure: (§1) Total RNA was extracted using RNeasy isolation kits, cDNAs were obtained using QuantiTect Reverse Transcription kits, and real-time PCRs were performed with QuantiTect SYBR Green PCR kits (all from Qiagen, Hilden, Germany), according to the manufacturer instructions. The primers used for the real-time PCRs and their annealing temperatures are listed in the Additional file 1: Table S1. Human hypoxanthine phosphoribosyltransferase 1 (HPRT1) or murine β2-microglobulin were followed as housekeeping genes. The real-time PCR programme consisted of an initial 15 min at 95 °C, and then 45 cycles as follows: 94 °C for 15 s, annealing temperature of each primer for 30 s, and 72 °C for 30 s. The real-time PCR machine used was a LightCycler 480 Instrument II (Roche, Indianapolis, IN, USA).
(§2) For the osteoclastogenesis in-vitro assay, RAW264.7 cells were plated in differentiation medium (α-MEM with 10% heat-inactivated FBS, 2 mM L-glutamine, 100 U/mL penicillin, and 100 ug/mL streptomycin) at a density of 5 × 10^3 cells/well in 24-well plates on coverslips for morphological analysis, or at 2 × 10^4 cells/well in six-well plates for RNA extraction. Twenty-four hours later and every 48 h, the medium was replaced and the cells were treated with 15–30 ng/mL RANKL with DMSO and/or PBS as carriers, or with GPR55 antagonists/ agonists (0.5 µM ML-191, 30 µM O1918, 0.5 µM CBD, 0.5 μM CID16020046 1 µM soybean LPI, 1 μM ML-184), or with the peptides (150 nM peptide-P1; or the irrelevant peptide, Irr_P). Twenty-four hours after the last addition, the cells were fixed with 4% paraformaldehyde for morphological analyses or harvested for RNA extraction (see above).

RAW264.7 cells = experiment: RANKL-induced transcription of osteoclastogenesis markers in RAW264.7 cells (real-time PCR); type: cell-based, murine; conditions: 72 h; for effect on RANKL-induced Mmp-9 mRNA: 0.5 µM CBD
Procedure: as §1
For transient interference of Gpr55, RAW264.7 cells were plated at 6 × 10^5 cells/well in six-well plates in growth medium without antibiotics. Twenty-four hours later, the cells were transfected with 250 pmol/well non-targeting small-interfering (si)RNAs (si-NT; siGENOME siRNA Pool #2; D-001206-14; Dharmacon, Chicago, IL, USA) or Gpr55-specific siRNAs (si-GPR55; siGENOME mouse GPR55 SMART pool; M-043590-01; Dharmacon) using Lipofectamine LTX and Plus Reagent, according to the manufacturer instructions. Twenty-four hours later, the cells were plated for the different assays or for RNA extraction. The efficiency of interference was monitored by real-time PCR after 72 h of interference, using the primers listed in the Additional file 1: Table S1. β2-microglobulin was followed as a housekeeping gene.
as §2

endogenous GPR55 (HeLa) = experiment: LPI-induced ERK/p38 phosphorylation in shCTRL-HeLa clones (Western blot); type: cell-based, human; conditions: for inhibition of LPI stimulation of both ERK2 and p38 phosphorylation at 5 min / inhibition of LPI-induced stimulation of ERK1/2: 30 µM ML-191, 10 µM CBD or 10 µM O1918
Procedure: For stable interference of GPR55, HeLa cells were plated at 1.5 × 10^5 cells/well in six-well plates in growth medium without antibiotics, and 24 h later, the cells were transfected with 1.7 µg/well OmicsLink short hairpin (sh)RNA expression clone CSHCTR001-CU6 (shCTRL) or clone HSH022476-3-CU6 (shGPR55) from GeneCopoeia (Rockville, MD, USA), using Lipofectamine 2000, according the manufacturer instructions. Forty-eight hours after transfection, HeLa clones stably expressing shRNAs were selected in growth medium containing 0.3 µg/mL puromycin. The efficiency of interference was monitored by real-time PCR using the primers listed in the Additional file 1: Table S1. HPRT1 was followed as a housekeeping gene.
(§3) Twenty-four hours after transfection (HEK293T, HeLa cells or clones) or 72 h after interference (RAW264.7 cells), the cells were washed twice with HBSS^++, serum deprived (HEK293T cells for 4 h in DMEM; HeLa cells and clones for 2 h in MEM plus 2 mM glutamine and 25 mM HEPES; RAW264.7 cells for 2 h in DMEM), washed once again with HBSS^++, incubated in stimulation buffer (HBSS^++ with 10 mM HEPES, 0.4% faf-BSA for HEK293T cells; HBSS^++ with 25 mM HEPES and 0.01% faf-BSA for HeLa cells, clones, and RAW264.7 cells) in the absence or presence of stimuli, at 37 °C for the indicated times. Incubations were terminated by washing the cells twice with cold HBSS^++, and the analyses were performed as reported below.
Cell lysates were obtained by scraping the cells into phospho-lysis buffer: 50 mM Tris–HCl, pH 7.5, 100 mM NaCl, 5 mM EDTA, 1% Triton X-100, 50 mM NaF, 40 mM β-glycerophosphate, 200 µM sodium orthovanadate, plus protease and phosphatase inhibitors (Roche). Following gentle homogenisation by 20 passages through a 26-gauge needle, the lysates were centrifuged at 10,000×g for 5 min at 4 °C, and the supernatants were collected.
Protein lysates were subjected to SDS-PAGE, and after electrophoresis, the proteins were transferred to a nitrocellulose membrane (PerkinElmer Life Science, Boston, MA, USA). For immunoblotting, the membranes were blocked with 5% non-fat milk in TBS (10 mM Tris–HCl, pH 7.4, 10 mM NaCl) plus 0.1% Tween-20 (T-TBS) for 30 min at room temperature, and incubated with primary antibodies in T-TBS plus 3% BSA for 2 h at room temperature, or overnight at 4 °C. The membranes were washed twice in T-TBS for 7 min, and then incubated with secondary antibodies conjugated to horseradish peroxidase (1:5,000) (Calbiochem, San Diego, CA, USA) in T-TBS with 5% non-fat milk for 30 min at room temperature. The membranes were then washed twice with T-TBS and once with TBS for 5 min, and the signals were detected by ECL (Amersham Pharmacia, Piscataway, NJ, USA). The rabbit anti-phospho AKT (Ser473), anti-phospho p38 (Thr180/Tyr182), anti-phospho p42/44 (Thr202/Tyr204), anti-p38 (all at dilution 1:1000) were from Cell Signaling Technology (Danvers, MA, USA). The rabbit anti-AKT (B-1), and anti-p42/44 (ERK1; K-23) were from Santa Cruz Biotechnology.

[2] = test system: HA-GPR55 in HEK293T cells; experiment: LPI-induced ERK1/2 activation in GPR55-transfected HEK293T cells; type: cell-based, human; conditions: soybean or synthetic LPI, 100 nM to 10 µM, 3–30 min; different transfection methods
Source text: The construct of haemagglutinin (HA)-tagged human GPR55 in pcDNA3 (HA-GPR55) was a gift from Prof. K. Mackie, Indiana University, Bloomington, IN, USA [39], while the construct ss-3 × HA-GPR55 in pcDNA3.1 (ssGPR55) with a triple HA tag at the N-terminus and an optimised signal sequence (ss, derived from amino acids 1–33 of the human growth hormone: […]) for efficient surface expression was from Prof. A. Irving, Dundee University, UK [40]. For both constructs, mutations were introduced by site-directed mutagenesis using QuickChange kits (Stratagene, La Jolla, CA, USA), according to the manufacturer instructions. The primers for the K80A mutation were 5′-[…]-3′ and 5′-[…]-3′ (Tm, 70.6 °C), and for Q87A were 5′-[…]-3′ and 5′-[…]-3′ (Tm, 73.1 °C).
For GPR55 overexpression, HEK293T cells were plated in their growth medium without antibiotics at 2.6 × 10^5 cells/well in 12-well plates, and 24 h later, the cells were transfected with 1 µg cDNA/well using Lipofectamine 2000, according to the manufacturer instructions. The pcDNA3 empty vector or that coding for human HA-GPR55 wild-type or its mutants HA-GPR55-K80A and HA-GPR55-Q87A were used.
as §3, with “Incubations were terminated by washing the cells twice with cold HBSS^++, and the analyses were performed as reported below.” left out
Protein lysates were subjected to SDS-PAGE, and after electrophoresis, the proteins were transferred to a nitrocellulose membrane (PerkinElmer Life Science, Boston, MA, USA). […] The membranes were then washed twice with T-TBS and once with TBS for 5 min, and the signals were detected by ECL (Amersham Pharmacia, Piscataway, NJ, USA). […]

[3] = test system: osteoclasts derived from RAW264.7 cells; experiment: Osteoclast functional assay (bone resorption on bovine cortical bone slices); type: cell-based, murine; conditions: 15 ng/mL RANKL, 7 days; at least three independent experiments
Procedure: RAW264.7 cells were plated in differentiation medium at a density of 1250 cells/100 µL on 0.2-mm-thick bovine cortical bone slices (BoneSlices.com, Jelling, Denmark) in 96-well plates. Six hours later, 100 µL differentiation medium with RANKL (15 ng/mL, final concentration) was added, in the presence of a carrier or in combination with the GPR55 modulators. The media with the different compounds were replaced every 48 h, for a total of 7 days. At the end of this period, the cells were detached with a 10% bleach solution, and the resorption excavations were visualised by using Toluidine Blue staining (Sigma-Aldrich). Images of the resorption areas were obtained under the microscope (SW380T; Swift Optical Instruments, Inc., TX, USA) using the 10 × objective, and acquired with a digital camera (Swiftcam SC1003; Swift Optical Instruments, Inc.). The total eroded surface underwent blinded quantification using ImageJ (NIH), and was subdivided into pit and trench surfaces. Pits were characterised as round excavations with well-defined edges where the ratio between length and width was < 2.0. Trenches were defined as elongated excavations with well-defined edges whose length was at least twice the wide, and with clear signs of continued resorption. The prevalence of trenches was calculated as a proportion (%) of the trench surface relative to the total eroded surface.

[4] = 15–30 ng/mL RANKL, 0.5 µM ML-191, 0.5 µM CBD, 30 µM O1918, four independent experiments
[5] = 10 µM soybean LPI, 10 min, 10 µM CBD or 30 µM ML-191, relative to CBD or ML-191 basal level
[6] = 30 ng/mL RANKL, mean ± range of two independent experiments

Row | Molecule | Gpr55 mRNA levels (fold non-differentiated) ([1]; 30 ng/mL RANKL) | effect on RANKL-induced Mmp-9 mRNA (RAW264.7 cells; 15–30 ng/mL RANKL, 30 µM O1918) | effect on RANKL-induced Ctr mRNA (RAW264.7 cells; [4]) | reduction of RANKL-induced Nfatc1 mRNA (RAW264.7 cells; [4]) [%] | reduction of RANKL-induced Trap mRNA (RAW264.7 cells; [4]) [%] | inhibition of LPI stimulation of both ERK2 and p38 phosphorylation at 5 min (endogenous GPR55 (HeLa); 10 µM soybean LPI) | inhibition of LPI-induced stimulation of ERK1/2 (endogenous GPR55 (HeLa); 10 µM soybean LPI) | further results
1 | C=C(C)[C@@H]1CCC(C)=C[C@H]1c1c(OC)cc(C)cc1OC [O1918] | 15.8 ± 3.1 | not affected | not affected | 40 | 40 | inhibited LPI stimulation of both ERK2 and p38 phosphorylation at 5 min | abolished | effect on RANKL-stimulated Gpr55 mRNA levels ([1]; 30 μM O1918): did not show any effects; effect on RANKL-induced Cathepsin-k mRNA (RAW264.7 cells; 15–30 ng/mL RANKL, 30 µM O1918): not affected; basal ERK2 activation level (without LPI) (endogenous GPR55 (HeLa); 30 µM ML-191 or 10 µM O1918): significantly increased basal activation levels
2 | L-α-lysophosphatidylinositol sodium salt from soybean [soybean LPI] | 24.5 ± 2.1 |  |  |  |  |  |  | ERK1/2 activation in GPR55-transfected compared to empty-vector-transfected cells [2]: inconsistent ERK1/2 activation
3 | Cc1cccc(N2CCN(C(=O)c3cc(S(=O)(=O)N(C)C)ccc3N3CCCC3)CC2)c1C [ML-184] |  |  |  |  |  |  |  | RANKL-induced transcription of Ctr, si-NT versus si-GPR55 cells (RAW264.7 cells; RANKL 15 ng/mL, 1 µM soybean LPI or 1 µM ML-184): similarly increased RANKL-induced transcription of Ctr only in precursor cells treated with non-targeting siRNAs, and not in those silenced for GPR55
4 | C=C(C)[C@@H]1CCC(C)=C[C@H]1c1c(O)cc(CCCCC)cc1O [CBD, Cannabidiol] | 27.7 ± 0.5 | not affected | not affected | 40 | 50 | inhibited LPI stimulation of both ERK2 and p38 phosphorylation at 5 min | strongly inhibited | further enhancement of RANKL-stimulated Gpr55 mRNA levels ([1]; 0.5 μM ML-191, 0.5 μM CBD, 1 μM soybean LPI, versus RANKL alone): 0.7 -fold; reduction of RANKL-induced Cathepsin-k mRNA (RAW264.7 cells; [4]): 44%; ERK2 phosphorylation upon LPI stimulation in presence of antagonist (endogenous GPR55 (HeLa); [5]): 3.3 -fold the antagonist basal lev; p38 phosphorylation upon LPI stimulation in presence of antagonist (endogenous GPR55 (HeLa); [5]): 1.5 -fold the antagonist basal lev
5 | RANKL: Receptor-activator of nuclear factor kappa-β ligand, Peprotech (protein, UniProt O14788 140-317, looked up) Tumor necrosis factor ligand …: IRAEKAMVDGSWLDLAKRSKLEAQPFAHLTINATDIPSGSHKVSLSSWYHDRGWAKISNMTFSNGKLIVNQDGFYYLYANICFRHHETSGDLATEYLQLMVYVTKTSIKIPSSHTLMKGGSTKYWSGNSEFHFYSINVGGFFKLRSGEEISIEVSNPSLLDPDQDATYFGAFKVRDID | 16.1 ± 1.6 |  |  |  |  |  |  | Gpr55 mRNA increase ([1]; 30 ng/mL RANKL, three independent experiments): 14 -fold; trench surface relative to total eroded surface [3]: 42 ± 8 % of total eroded surface; Cathepsin-k mRNA increase versus undifferentiated cells (RAW264.7 cells; [6]): 468.5 (±24.3) -fold; Mmp-9 mRNA increase versus undifferentiated cells (RAW264.7 cells; [6]): 673.3 (±4.7) -fold; Nfatc1 mRNA increase versus undifferentiated cells (RAW264.7 cells; [6]): 11.9 (±2.2) -fold; Trap mRNA increase versus undifferentiated cells (RAW264.7 cells; [6]): 188.8 (±57.6) -fold
